Values joined by “and” are separate entries in the source; they are usually repeats but may differ in a detail not shown here. Identical values can stand only once. Toxic doses and inconclusive results are not listed.
Tested on: P388 leukemia ip, CD2F1 mice, survival T/C
Experiment: NCI In Vivo Anticancer Drug Screen. Data for tumor model P388 Leukemia (intraperitoneal) in CD2F1 (CDF1) mice
Details: endpoint: median survival time, higher = longer survival
Summary of the method: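 Mice carrying the transplanted tumor received test compound or vehicle. Survival was recorded in each group, and the value is the treated-group measurement divided by that of the vehicle-treated control group.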

[1] = dose: 50.0 mg/kg/injection, schedule: Q01DX009 (ip), vehicle: Klucel (hydroxypropylcellulose) (HPC)
[2] = dose: 120.0 mg/kg/injection, schedule: Q01DX005 (ip), vehicle: saline with Tween-80
[3] = dose: 240.0 mg/kg/injection, schedule: Q01DX005 (ip), vehicle: saline with Tween-80
[4] = dose: 60.0 mg/kg/injection, schedule: Q01DX005 (ip), vehicle: saline with Tween-80
[5] = dose: 100.0 mg/kg/injection, schedule: Q04DX003 (ip), vehicle: saline with Tween-80
[6] = dose: 200.0 mg/kg/injection, schedule: Q04DX003 (ip), vehicle: saline with Tween-80
[7] = dose: 400.0 mg/kg/injection, schedule: Q04DX003 (ip), vehicle: saline with Tween-80
[8] = dose: 6.25 mg/kg/injection, schedule: Q01DX009 (ip), vehicle: saline with Tween-80
[9] = dose: 12.5 mg/kg/injection, schedule: Q01DX009 (ip), vehicle: saline with Tween-80
[10] = dose: 25.0 mg/kg/injection, schedule: Q01DX009 (ip), vehicle: saline with Tween-80
[11] = dose: 100.0 mg/kg/injection, schedule: Q04DX003 (ip), vehicle: suspension in saline
[12] = dose: 200.0 mg/kg/injection, schedule: Q04DX003 (ip), vehicle: suspension in saline
[13] = dose: 50.0 mg/kg/injection, schedule: Q01DX005 (ip), vehicle: Klucel (hydroxypropylcellulose) (HPC)
[14] = dose: 100.0 mg/kg/injection, schedule: Q01DX005 (ip), vehicle: Klucel (hydroxypropylcellulose) (HPC)
[15] = dose: 200.0 mg/kg/injection, schedule: Q01DX005 (ip), vehicle: Klucel (hydroxypropylcellulose) (HPC)

Q: Which results are given for `C[N+](C)(C)c1ccc2c(c1)CCC/C2=N\N`?
A: T/C (dose: 1.56 mg/kg/injection, schedule: Q04DX003 (ip), vehicle: saline): 100 % of control; T/C (dose: 3.13 mg/kg/injection, schedule: Q04DX003 (ip), vehicle: saline): 100 % of control; T/C (dose: 6.25 mg/kg/injection, schedule: Q04DX003 (ip), vehicle: saline): 97 % of control

Q: What does the source list for `ClCCN(CCCl)c1ccc(CCN2CCOCC2)cc1`?
A: T/C (dose: 6.25 mg/kg/injection, schedule: Q01DX009 (ip), vehicle: saline): 100 % of control and 113 % of control; T/C (dose: 12.5 mg/kg/injection, schedule: Q01DX009 (ip), vehicle: saline): 150 % of control and 154 % of control; T/C (dose: 25.0 mg/kg/injection, schedule: Q01DX009 (ip), vehicle: saline): 150 % of control and 220 % of control

Q: With `CCC(=O)N(C)C(C)C(=O)OC1CC(=O)N(C)c2cc(cc(OC)c2Cl)CC(CO)=C/C=C/C(OC)C2(O)CC(OC(=O)N2)C(C)C2OC12C` (stereo not drawn) as the molecule, how does the T/C (dose: 50.0 micrograms/kg/injection, schedule: Q01DX009 (ip), vehicle: saline + alcohol) read?
A: 124 % of control

Q: And the T/C (dose: 100.0 micrograms/kg/injection, schedule: Q01DX009 (ip), vehicle: saline + alcohol)?
A: 158 % of control

Q: And the T/C (dose: 400.0 micrograms/kg/injection, schedule: Q01DX009 (ip), vehicle: saline + alcohol)?
A: 150 % of control and 158 % of control

Q: What about the T/C (dose: 800.0 micrograms/kg/injection, schedule: Q01DX009 (ip), vehicle: saline + alcohol) of the same molecule?
A: 155 % of control

Q: What does the source list for `CN(C)[Si](c1ccccc1)(c1ccccc1)N(C)C`?
A: T/C [1]: 102 % of control; T/C (dose: 100.0 mg/kg/injection, schedule: Q01DX009 (ip), vehicle: Klucel (hydroxypropylcellulose) (HPC)): 102 % of control; T/C (dose: 200.0 mg/kg/injection, schedule: Q01DX009 (ip), vehicle: Klucel (hydroxypropylcellulose) (HPC)): 106 % of control

Q: For `Cc1cnc(N/N=C/c2c(CO)cnc(C)c2O)s1`, which T/C (dose: 7.5 mg/kg/injection, schedule: Q01DX005 (ip), vehicle: Klucel (hydroxypropylcellulose) (HPC)) is on record?
A: 99 % of control

Q: What about the T/C (dose: 15.0 mg/kg/injection, schedule: Q01DX005 (ip), vehicle: Klucel (hydroxypropylcellulose) (HPC)) of the same molecule?
A: 94 % of control

Q: And the T/C (dose: 30.0 mg/kg/injection, schedule: Q01DX005 (ip), vehicle: Klucel (hydroxypropylcellulose) (HPC))?
A: 86 % of control

Q: What about the T/C [2] of the same molecule?
A: 93 % of control

Q: What about the T/C [3] of the same molecule?
A: 112 % of control

Q: How did the T/C (dose: 100.0 mg/kg/injection, schedule: Q04DX002 (ip), vehicle: Klucel (hydroxypropylcellulose) (HPC)) turn out when `Cc1ccc(-c2cs/c(=N\N=C3/CSC(=O)N3Cc3ccccc3)n2-c2cccc(C)c2)cc1` was run?
A: 89 % of control

Q: And the T/C (dose: 200.0 mg/kg/injection, schedule: Q04DX002 (ip), vehicle: Klucel (hydroxypropylcellulose) (HPC))?
A: 89 % of control

Q: What about the T/C (dose: 400.0 mg/kg/injection, schedule: Q04DX002 (ip), vehicle: Klucel (hydroxypropylcellulose) (HPC)) of the same molecule?
A: 91 % of control

Q: What does the source list for `OCCCCCOCCOCCOCCOCCOCCCCCO`?
A: T/C (dose: 50.0 mg/kg/injection, schedule: Q01DX005 (ip), vehicle: saline with Tween-80): 101 % of control; T/C (dose: 100.0 mg/kg/injection, schedule: Q01DX005 (ip), vehicle: saline with Tween-80): 101 % of control; T/C (dose: 200.0 mg/kg/injection, schedule: Q01DX005 (ip), vehicle: saline with Tween-80): 96 % of control

Q: What does the source list for `COC(=O)C(C)=O`?
A: T/C (dose: 100.0 mg/kg/injection, schedule: Q04DX003 (ip), vehicle: saline): 100 % of control; T/C (dose: 200.0 mg/kg/injection, schedule: Q04DX003 (ip), vehicle: saline): 90 % of control; T/C (dose: 400.0 mg/kg/injection, schedule: Q04DX003 (ip), vehicle: saline): 90 % of control

Q: For `COC(=O)N1C(=O)CO[C@@H]1C(C)(C)C`, which T/C [4] is on record?
A: 103 % of control

Q: What about the T/C [2] of the same molecule?
A: 99 % of control

Q: What about the T/C [3] of the same molecule?
A: 104 % of control

Q: For `CC(=O)SSC12CC3CC(CC(C3)C1)C2`, which T/C (dose: 30.0 mg/kg/injection, schedule: Q01DX005 (ip), vehicle: saline with Tween-80) is on record?
A: 100 % of control

Q: What about the T/C [4] of the same molecule?
A: 100 % of control and 101 % of control

Q: What about the T/C [2] of the same molecule?
A: 100 % of control and 104 % of control

Q: `NC(C(=O)O)C(CC(=O)O)c1ccncc1` (stereo not drawn) was tested. Which T/C [5] did it give?
A: 96 % of control

Q: And the T/C [6]?
A: 89 % of control

Q: What about the T/C [7] of the same molecule?
A: 98 % of control

Q: What does the source list for `COc1ccc(S(=O)(=O)N(C)/N=C/C(=O)O)cc1`?
A: T/C (dose: 12.5 mg/kg/injection, schedule: Q01DX005 (ip), vehicle: distilled water + Tween-80): 100 % of control; T/C (dose: 25.0 mg/kg/injection, schedule: Q01DX005 (ip), vehicle: distilled water + Tween-80): 106 % of control; T/C (dose: 50.0 mg/kg/injection, schedule: Q01DX005 (ip), vehicle: distilled water + Tween-80): 106 % of control; T/C (dose: 100.0 mg/kg/injection, schedule: Q01DX005 (ip), vehicle: distilled water + Tween-80): 95 % of control; T/C (dose: 200.0 mg/kg/injection, schedule: Q01DX005 (ip), vehicle: distilled water + Tween-80): 97 % of control; T/C (dose: 200.0 mg/kg/injection, schedule: Q01DX005 (ip), vehicle: water): 106 % of control; T/C (dose: 400.0 mg/kg/injection, schedule: Q01DX005 (ip), vehicle: water): 102 % of control

Q: How did the T/C (dose: 6.25 mg/kg/injection, schedule: Q01DX010 (ip), vehicle: saline) turn out when `CCC[CH2][Sn]([CH2]CCC)([CH2]CCC)[S]C(=S)NCCNC(=S)[S][Sn]([CH2]CCC)([CH2]CCC)[CH2]CCC` was run?
A: 120 % of control

Q: For `CCOC(=O)NC(=S)c1ccc[nH]1`, which T/C (dose: 12.5 mg/kg/injection, schedule: Q01DX009 (ip), vehicle: Klucel (hydroxypropylcellulose) (HPC)) is on record?
A: 95 % of control

Q: What about the T/C (dose: 25.0 mg/kg/injection, schedule: Q01DX009 (ip), vehicle: Klucel (hydroxypropylcellulose) (HPC)) of the same molecule?
A: 87 % of control

Q: And the T/C [1]?
A: 95 % of control and 98 % of control

Q: What does the source list for `O=[N+]([O-])c1cc(F)ccc1O`?
A: T/C [8]: 95 % of control; T/C [9]: 100 % of control; T/C [10]: 104 % of control

Q: How did the T/C [5] turn out when `CCCn1c(Cl)c(/C=N\Nc2ccc([N+](=O)[O-])cc2[N+](=O)[O-])c2ccccc21` was run?
A: 92 % of control

Q: What about the T/C [6] of the same molecule?
A: 97 % of control

Q: What about the T/C [7] of the same molecule?
A: 92 % of control

Q: Which T/C (dose: 25.0 mg/kg/injection, schedule: Q01DX001 (ip), vehicle: saline) does the source give for `COc1ccc2cc1Oc1ccc(cc1)C[C@H]1c3c(cc(OC)c(O)c3Oc3cc4c(cc3OC)CCN(C)[C@@H]4C2)CCN1C` here?
A: 101 % of control

Q: And the T/C (dose: 50.0 mg/kg/injection, schedule: Q01DX001 (ip), vehicle: saline)?
A: 106 % of control

Q: What about the T/C (dose: 100.0 mg/kg/injection, schedule: Q01DX001 (ip), vehicle: saline) of the same molecule?
A: 106 % of control

Q: What about the T/C (dose: 200.0 mg/kg/injection, schedule: Q01DX001 (ip), vehicle: saline) of the same molecule?
A: 100 % of control

Q: `CN(C)c1ccc(CN(Cc2ccccc2)CC(O)c2ccccc2)cc1` (stereo not drawn) was tested. Which T/C [8] did it give?
A: 97 % of control

Q: And the T/C [9]?
A: 100 % of control

Q: And the T/C [10]?
A: 100 % of control

Q: And the T/C (dose: 50.0 mg/kg/injection, schedule: Q01DX009 (ip), vehicle: saline with Tween-80)?
A: 102 % of control

Q: For `CCOP(O)(=S)OCC.[Nd]`, which T/C (dose: 100.0 mg/kg/injection, schedule: Q01DX001 (ip), vehicle: Klucel (hydroxypropylcellulose) (HPC)) is on record?
A: 89 % of control

Q: And the T/C (dose: 200.0 mg/kg/injection, schedule: Q01DX001 (ip), vehicle: Klucel (hydroxypropylcellulose) (HPC))?
A: 91 % of control

Q: And the T/C (dose: 400.0 mg/kg/injection, schedule: Q01DX001 (ip), vehicle: Klucel (hydroxypropylcellulose) (HPC))?
A: 99 % of control

Q: With `COc1ccc2c(CSCCO)cc(=O)oc2c1` as the molecule, how does the T/C (dose: 50.0 mg/kg/injection, schedule: Q04DX003 (ip), vehicle: suspension in saline) read?
A: 97 % of control

Q: What about the T/C [11] of the same molecule?
A: 100 % of control

Q: What about the T/C [12] of the same molecule?
A: 98 % of control

Q: With `[CH3][Sn]([CH3])([CH3])[O]C(=O)CNC(=O)c1ccccc1` as the molecule, how does the T/C (dose: 1.56 mg/kg/injection, schedule: Q01DX001 (ip), vehicle: Klucel (hydroxypropylcellulose) (HPC)) read?
A: 103 % of control

Q: What about the T/C (dose: 3.12 mg/kg/injection, schedule: Q01DX001 (ip), vehicle: Klucel (hydroxypropylcellulose) (HPC)) of the same molecule?
A: 103 % of control

Q: For `Cc1nc(N)nc(Nc2ccccc2)n1`, which T/C [4] is on record?
A: 103 % of control

Q: And the T/C [2]?
A: 99 % of control

Q: What about the T/C [3] of the same molecule?
A: 101 % of control

Q: Which T/C [4] does the source give for `CC12CC3CC(C)(C1)CC(SCCN)(C3)C2` here?
A: 105 % of control

Q: And the T/C [2]?
A: 100 % of control

Q: How did the T/C [13] turn out when `CC(C)(C)OC(=O)NC(Cc1ccc(O)cc1)C(=O)O` (stereo not drawn) was run?
A: 102 % of control

Q: What about the T/C [14] of the same molecule?
A: 103 % of control

Q: What about the T/C [15] of the same molecule?
A: 96 % of control

Q: Which T/C [13] does the source give for `CCOC(=O)C1=C(N)OC(c2ccccc2)=C(C#N)C1c1ccc(C)cc1` (stereo not drawn) here?
A: 110 % of control

Q: And the T/C [14]?
A: 107 % of control

Q: What about the T/C [15] of the same molecule?
A: 100 % of control

Q: `CN1C(c2ccccc2)C2CSCC(C2O)C1c1ccccc1` (stereo not drawn) was tested. Which T/C [11] did it give?
A: 106 % of control

Q: And the T/C [12]?
A: 100 % of control

Q: And the T/C (dose: 400.0 mg/kg/injection, schedule: Q04DX003 (ip), vehicle: suspension in saline)?
A: 98 % of control
